Values after ≈ are worked out from the molar mass of the structure shown. Values joined by “and” are separate entries in the source; they are usually repeats but may differ in a detail not shown here. Equal values may be shown once. Read-outs that look alike come from different tables or passages of the source.
Key:
[1] = system: Propionibacterium acnes; experiment: Anti-bacterial assay (growth inhibition, MIC/MBC by broth microdilution); assay type: cell-based; conditions: for MBC / MIC / inhibition at 100 µg/mL: Cutibacterium acnes; for inhibition at 100 µg/mL: read-out: Inhibition Rate (P. acnes growth); for activity against P. acnes (in words): at their maximum solubility
In short: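 P. acnes NBRC 107605 grown in GAM broth 30 h at 37 °C, then used at 10^5 CFU/mL. Compounds in DMSO incubated with bacteria 30 h at 37 °C; growth read at 630 nm. MIC and MBC by broth microdilution.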

[2] = system: RBL-2H3 cells; experiment: β-hexosaminidase release from IgE-stimulated RBL-2H3 mast cells; assay type: cell-based, rat
In short: (§1)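 IgE-sensitized RBL-2H3 cells (0.5 μg/mL anti-DNP IgE, 24 h) treated with sample 30 min in Tyrode buffer, then challenged 1 h with 50 μg/mL DNP-BSA. Released β-hexosaminidase measured with 2 mM p-nitrophenyl-N-acetyl-β-glucosaminide, 3 h, A405; viability by parallel MTT.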

[3] = system: inflammation induced by 12-O-tetradecanoylphorbol-13-acetate (TPA); design: method as in PMID 16204964, PMID 14745168; conditions: mice; cited from earlier work
[4] = system: mushroom tyrosinase; experiment: Tyrosinase inhibition assay; assay type: biochemical; conditions: for inhibitory effect on tyrosinase (in words): L-DOPA as substrate; for inhibitory activity on tyrosinase (in words): L-tyrosine as substrate, relatively high concentrations
Description: Tyrosinase inhibition activity was evaluated by using L-tyrosine and L-DOPA as substrates, as described. Briefly, 333 μL of 2.5 mM L-tyrosine or L-DOPA solution (Sigma-Aldrich) was mixed with 600 μL of 0.1 M phosphate buffer (pH 6.8) and incubated at 25 °C. Then, 33 μL of the sample solution (dissolved in DMSO in various concentrations) and 33 μL of 1380 units/mL mushroom tyrosinase (Sigma-Aldrich) were added to the mixture. The optical density was measured at 475 nm up to the appropriate time. Kojic acid (Sigma-Aldrich) was used as the positive control; the final concentration is 3.3 μg/mL.

[5] = Cell viability of B16 melanoma cells (MTT); conditions: mouse
[6] = Cell viability of RBL-2H3 cells (parallel MTT); assay type: cell-based, rat; conditions: rat; 25 μg/ml, RBL-2H3 cells; read-out: Cell viability
In short: as §1

[7] = system: NHDF-Ad cells; experiment: Hyaluronic acid production assay (ELISA, with MTT); assay type: cell-based, human; conditions: fold of control
Description: NHDF-Ad cells were seeded on 96-well plates (5 × 10^3 cells/well) for 24 h before the treatment. The medium was replaced with a mixture of 1 μL of sample solution (DMSO < 0.5% per well) and 99 μL of DMEM supplemented with 0.5% FBS. After 72 h cultivation, the amount of hyaluronic acid in the medium was measured using a QnE Hyaluronic acid ELISA kit (Biotech Trading Partners, Encinitas, CA, USA). The amount of hyaluronic acid production was quantitatively calculated from the standard curve. Cell viability was measured by the MTT method, and ascorbic acid was used as a positive control.

[8] = system: Epstein–Barr virus early antigen; design: method as in PMID 16204964, PMID 14745168; conditions: cited from earlier work
[9] = system: B16 melanoma cells; experiment: Anti-melanogenesis assay (melanin content); assay type: cell-based, mouse; conditions: for inhibition at 1 µg/mL: 1 μg/ml; for inhibition at 2.5 µg/mL: 2.5 μg/ml; for IC50 / S.I (selectivity index, CC50 value/IC50 value): B16 melanoma cells; for inhibition at 5 µg/mL: 5 μg/ml; for inhibition at 10 µg/mL: 10 μg/ml
In short: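 B16 cells treated with samples in DMSO (<0.2%) for 48 h, then re-dosed in fresh medium for a further 24 h; arbutin served as positive control. Melanin content read at 405 nm and viability by MTT at 570 nm.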

[10] = system: B16 melanoma cells; experiment: Cell viability of B16 melanoma cells (MTT); conditions: B16 cells
[11] = P. acnes, broth microdilution, read-out: MBC
[12] = P. acnes, broth microdilution, read-out: MIC
[13] = Rattus norvegicus, RBL-2H3, 25 μg/mL, read-out: Inhibition Rate (β-hexosaminidase release)
[14] = Mus musculus, B16 cells, read-out: Inhibition rate (100% − melanin synthesis)
[15] = Mus musculus, read-out: IC50 (melanin synthesis)
[16] = Mus musculus, read-out: IC50 melanin
[17] = Rattus norvegicus, RBL-2H3, read-out: Inhibition Rate (β-hexosaminidase release)

Row | Structure (SMILES) | MBC [1, 11] [µg/mL] | MIC [1, 12] [µg/mL] | inhibition at 100 µg/mL ([1]; concentration 100 μg/mL) [%] | activity against P. acnes (in words) [1] | inhibition at 25 µg/mL [2, 13] [%] | inhibitory activity against TPA-induced inflammation (in words) [3] | inhibitory effect on tyrosinase (in words) [4] | CC50 at 72 h ([5]; B16 melanoma cells) | viability at 25 μg/ml [6] [%] | inhibition at 1 µg/mL [9, 14] [%] | inhibition at 2.5 µg/mL [9, 14] [%] | IC50 [9, 15] [µM] | IC50 [9, 16] [µg/mL] | Inhibition rate (100% − cell viability) ([10]; 1 μg/ml) [%] | Inhibition rate (100% − cell viability) ([10]; 2.5 μg/ml) [%] | Inhibition rate (100% − cell viability) ([10]; 5 μg/ml) [%] | Inhibition rate (100% − cell viability) ([10]; 10 μg/ml) [%] | S.I (selectivity index, CC50 value/IC50 value) [9] | inhibition at 5 µg/mL [9, 14] [%] | inhibition at 10 µg/mL [9, 14] [%] | further results
1 | C[C@H]1[C@H](C)CC[C@]2(C(=O)O)CC[C@]3(C)C(=CC[C@@H]4[C@@]5(C)CC[C@H](O)C(C)(C)[C@@H]5CC[C@]43C)[C@H]12 [Compound 1, Ursolic acid] | 100 (≈ 219 µM) | 50 (≈ 109 µM) | 109.8 ± 0.5 | active | 72.5 ± 3 | significant inhibitory activity | no inhibitory effect | 4.3 µg/mL and 9.4 µM | 103 ± 5.3 | 24 ± 0.8 | 58.5 ± 3.2 | 4.8 | 2.2 | – | – | – | – | – | – | – | inhibition at 5 µg/mL ([2]; Rattus norvegicus, RBL-2H3, 5 μg/mL, read-out: Inhibition Rate (β-hexosaminidase release)): 0%; inhibition at 12.5 µg/mL ([2]; Rattus norvegicus, RBL-2H3, 12.5 μg/mL, read-out: Inhibition Rate (β-hexosaminidase release)): 37.6 ± 3%; IC50 ([2]; Rattus norvegicus, IgE-stimulated RBL-2H3 cells, read-out: IC50 (β-hexosaminidase release)): 39.5 µM; inhibitory activity on tyrosinase (in words) [4]: moderate inhibitory activity; HA/CV value (hyaluronic acid %/cell viability %) ([7]; 5 μg/mL): 4.7; inhibitory activity against TPA-induced Epstein–Barr virus early antigen activation (in words) [8]: significant inhibitory activity; inhibition at 0.5 µg/mL ([9]; Mus musculus, 0.5 μg/ml, B16 cells, read-out: Inhibition rate (100% − melanin synthesis)): 4.2 ± 1.7%
2 | CC1(C)CC[C@]2(C(=O)O)CC[C@]3(C)C(=CC[C@@H]4[C@@]5(C)C[C@@H](O)[C@H](O)C(C)(C)[C@@H]5CC[C@]43C)[C@@H]2C1 [Compound 7, Maslinic acid] | – | – | – | active | – | significant inhibitory activity | no inhibitory effect | – | 84.4 | 2.8 ± 1.1 | 12.2 ± 1.9 | 18.5 | 8.7 | 2.5 ± 2.2 | 3.2 ± 4.8 | 42.2 ± 4.0 | 44.3 ± 6.4 | > 1.0 | 47.5 ± 0.4 | 54.5 ± 3 | MBC [1]: 150 µg/mL (≈ 317 µM); MIC [1]: 50 µg/mL (≈ 106 µM); inhibition at 100 µg/mL [1]: 104 ± 3.1%; IC50 ([2]; Rattus norvegicus, RBL-2H3, read-out: IC50 (β-hexosaminidase release), IgE-stimulated RBL-2H3 cells): 22.9 µM; inhibition at 5 µg/mL [2, 17]: 9.5 ± 6.6%; inhibition at 12.5 µg/mL [2, 17]: 58.2 ± 3%; inhibition at 25 µg/mL [2, 17]: 66 ± 2.6%; IC50 ([2]; read-out: IC50 (β-hexosaminidase release), IgE-stimulated RBL-2H3 cells): 22.8 µM; inhibitory activity on tyrosinase (in words) [4]: moderate inhibitory activity; CC50 at 72 h [5]: 13.8 µg/mL and 29.3 µM; Inhibition rate (100% − cell viability) ([10]; 20 μg/ml): 76.5± 3.0%; inhibitory activity against TPA-induced Epstein–Barr virus early antigen activation (in words) [8]: significant inhibitory activity; inhibition at 20 µg/mL ([9]; Mus musculus, 20 μg/ml, B16 cells, read-out: Inhibition rate (100% − melanin synthesis)): 65.1 ± 0.4%
3 | C[C@H]1[C@H](C)CC[C@]2(C(=O)O)CC[C@]3(C)C(=CC[C@@H]4[C@@]5(C)C[C@@H](O)[C@H](O)C(C)(C)[C@@H]5CC[C@]43C)[C@H]12 [Compound 8, Corosolic acid] | 100 (≈ 212 µM) | 50 (≈ 106 µM) | 105.9 ± 0.4 | active | 36.1 ± 6.7 | – | – | 12.2 µg/mL and 25.8 µM | 80.4 ± 1.6 | 3.4 ± 5.1 | 0.5 ± 4.1 | 18.7 | 8.8 | 0.0 ± 3.5 | 0.0 ± 3.8 | 0.3 ± 4.0 | 39.3 ± 4.7 | 1.4 | 17.4 ± 5.5 | 59.8 ± 1.9 | Inhibition rate (100% − cell viability) ([10]; 20 μg/ml): 94.8± 0.3%; HA/CV value (hyaluronic acid %/cell viability %) ([7]; 10 μg/mL): 5.9
4 | C[C@@H]1CC[C@]2(C(=O)O)CC[C@]3(C)C(=CC[C@@H]4[C@@]5(C)CC[C@H](O)C(C)(C)[C@@H]5CC[C@]43C)[C@@H]2[C@]1(C)O [Compound 10, Pomolic acid] | – | – | 84.4 ± 1.2 | active | 22.4 ± 1.9 | – | – | 4.9 µg/mL and 10.5 µM | 77 ± 5.3 | 3.2 ± 8.2 | 28.4 ± 1.5 | 14 | 6.6 | 1.9 ± 5.4 | 0.0 ± 6.1 | 50.9 ± 4.4 | 68.4 ± 1.5 | 0.8 | 43.9 ± 1.9 | 55.8 ± 8.1 | HA/CV value (hyaluronic acid %/cell viability %) ([7]; 10 μg/mL): 5.8
